Measurements published in patent publication US20160002204A1 (Board of Regents, The University of Texas System, priority 2014, published 2016).

What was measured:
A549 cells = experiment: A549 proliferation (viability) assay, Cell Titer Fluor, 72 hours; type: cell-based; settings: Homo sapiens
Description: A549 cells were routinely maintained in RPMI 1640 media (Gibco catalog number 11875-093) supplemented with 10% dialyzed fetal bovine serum using a humidified incubator (37° C., 5% CO2 and ambient O2). In preparation for the viability assay, cells were inoculated into 384-well black CulturPlates (Perkin Elmer) at a density of 1000 cells/well in a volume of 40 uL. Following a 24-hour incubation at 37° C., 5% CO2 and ambient O2, cells were treated with compound (10 uL) in a final DMSO concentration of 0.5% (v/v). The microplates were then incubated for 72 hours (37° C., 5% CO2 and ambient O2). Cell Titer Fluor (Promega) was subsequently added (10 uL of 6× reagent) and mixed for 15 minutes at room temperature. The plates were then incubated for 30 minutes (37° C., 5% CO2 and ambient O2) and fluorescence was subsequently read on the Perkin Elmer Envision plate reader. EC50 values were calculated using a four-parameter logistic curve fit.

[1] = molecular target: T1, GLS1 (purified recombinant human GAC) (Homo sapiens, UniProt O94925); experiment: GLS1 enzymatic activity assay (dual-coupled, Amplex UltraRed/resorufin); type: biochemical
T1 sequence (O94925 55-598 isoform O94925-3 limits assumed): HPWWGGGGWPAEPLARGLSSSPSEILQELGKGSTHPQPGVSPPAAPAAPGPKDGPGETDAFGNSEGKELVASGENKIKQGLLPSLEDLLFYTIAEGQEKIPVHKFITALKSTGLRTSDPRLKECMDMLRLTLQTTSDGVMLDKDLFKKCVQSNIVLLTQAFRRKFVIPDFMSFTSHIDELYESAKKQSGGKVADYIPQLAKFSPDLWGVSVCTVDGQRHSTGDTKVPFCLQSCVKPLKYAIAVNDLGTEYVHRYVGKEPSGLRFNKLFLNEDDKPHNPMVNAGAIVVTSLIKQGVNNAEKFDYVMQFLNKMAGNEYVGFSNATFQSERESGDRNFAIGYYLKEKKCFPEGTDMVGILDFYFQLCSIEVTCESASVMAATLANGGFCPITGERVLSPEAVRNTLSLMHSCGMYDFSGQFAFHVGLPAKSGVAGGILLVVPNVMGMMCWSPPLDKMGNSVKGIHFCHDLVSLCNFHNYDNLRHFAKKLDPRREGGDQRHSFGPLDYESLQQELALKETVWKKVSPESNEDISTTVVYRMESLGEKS
In short: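 Recombinant human GAC (2 nM) preincubated with 50 mM potassium phosphate, then inhibitor (10 min each, RT); 1 mM glutamine, pH 7.4 Hepes buffer, 1% DMSO. Glutamate coupled via glutamate oxidase/HRP to resorufin (Ex 530/Em 590), kinetic or 20-min endpoint; IC50 by four-parameter logistic fit.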

EC50 (A549 cells) [nM] | IC50 [1] [nM] | SMILES
500 to 5000 | 100 to 500 | CNC(=O)c1cn(CCCCn2ccc(NC(=O)Cc3cccc(OC(F)(F)F)c3)cc2=O)nn1 [Example 40, N-methyl-1-[4-(2-oxo-4-{2-[3-(trifluoromethoxy)phenyl]acetamido}-1,2-dihydropyridin-1-yl)butyl]-1H-1,2,3-triazole-4-carboxamide]
500 to 5000 | < 100 | O=C(Cc1cccc(OC(F)(F)F)c1)Nc1ccn(CCCCn2cc(C(=O)NCC3CCCCC3)nn2)c(=O)c1 [Example 41, N-(cyclohexylmethyl)-1-[4-(2-oxo-4-{2-[3-(trifluoro-methoxy)phenyl]acetamido}-1,2-dihydropyridin-1-yl)butyl]-1H-1,2,3-triazole-4-carboxamide]
100 to 500 | < 100 | O=C(Nc1ccn(CCCCn2cc(C(=O)NCc3cccc(OC(F)(F)F)c3)nn2)c(=O)c1)OCc1ccccc1 [Example 42, benzyl N-(2-oxo-1-{4-[4-({[3-(trifluoromethoxy)phenyl]methyl}carbamoyl)-1H-1,2,3-triazol-1-yl]butyl}-1,2-dihydropyridin-4-yl)carbamate]
100 to 500 | < 100 | CC(C)OC(=O)Nc1ccn(CCCCn2cc(C(=O)NCc3cccc(OC(F)(F)F)c3)nn2)c(=O)c1 [Example 43, propan-2-yl N-(2-oxo-1-{4-[4-({[3-(trifluoromethoxy)phenyl]methyl}carbamoyl)-1H-1,2,3-triazol-1-yl]butyl}-1,2-dihydropyridin-4-yl)carbamate]
< 100 | < 100 | O=C(Nc1ccn(CCCCn2cc(C(=O)NCc3cccc(OC(F)(F)F)c3)nn2)c(=O)c1)OC1CCCCC1 [Example 44, cyclohexyl N-(2-oxo-1-{4-[4-({[3-(trifluoromethoxy)phenyl]methyl}carbamoyl)-1H-1,2,3-triazol-1-yl]butyl}-1,2-dihydropyridin-4-yl)carbamate]
< 100 | < 100 | O=C(CC1CCCCC1)Nc1ccn(CCCCn2cc(C(=O)NCc3cccc(OC(F)(F)F)c3)nn2)c(=O)c1 [Example 45, 1-{4-[4-(2-cyclohexylacetamido)-2-oxo-1,2-dihydropyridin-1-yl]butyl}-N-{[3-(trifluoromethoxy)phenyl]methyl}-1H-1,2,3-triazole-4-carboxamide]
> 5000 | 100 to 500 | Cn1cc(CC(=O)Nc2ccn(CCCCn3cc(C(=O)NCc4cccc(OC(F)(F)F)c4)nn3)c(=O)c2)cn1 [Example 46, 1-(4-{4-[2-(1-methyl-1H-pyrazol-4-yl)acetamido]-2-oxo-1,2-dihydropyridin-1-yl}butyl)-N-{[3-(trifluoromethoxy)phenyl]methyl}-1H-1,2,3-triazole-4-carboxamide]
500 to 5000 | < 100 | O=C(CC1CCOC1)Nc1ccn(CCCCn2cc(C(=O)NCc3cccc(OC(F)(F)F)c3)nn2)c(=O)c1 (centres unmarked) [Example 47, 1-(4-{2-oxo-4-[2-(oxolan-3-yl)acetamido]-1,2-dihydropyridin-1-yl}butyl)-N-{[3-(trifluoromethoxy)phenyl]methyl}-1H-1,2,3-triazole-4-carboxamide]
500 to 5000 | < 100 | O=C(CC1CCOCC1)Nc1ccn(CCCCn2cc(C(=O)NCc3cccc(OC(F)(F)F)c3)nn2)c(=O)c1 [Example 48, 1-(4-{4-[2-(oxan-4-yl)acetamido]-2-oxo-1,2-dihydropyridin-1-yl}butyl)-N-{[3-(trifluoromethoxy)phenyl]methyl}-1H-1,2,3-triazole-4-carboxamide]
500 to 5000 | 100 to 500 | O=C(NCc1ccccn1)c1ccn(CCCCn2cc(C(=O)NCc3cccc(OC(F)(F)F)c3)nn2)c(=O)c1 [Example 49, 2-oxo-N-(pyridin-2-ylmethyl)-1-{4-[4-({[3-(trifluoro-methoxy)phenyl]methyl}carbamoyl)-1H-1,2,3-triazol-1-yl]butyl}-1,2-dihydropyridine-4-carboxamide]
> 5000 | 500 to 5000 | CC(=O)Nc1ccn(CCCCn2cc(C(=O)NCc3cccc(OC(F)(F)F)c3)nn2)c(=O)c1 [Example 50, 1-[4-(4-acetamido-2-oxo-1,2-dihydropyridin-1-yl)butyl]-N-{[3-(trifluoromethoxy)phenyl]methyl}-1H-1,2,3-triazole-4-carboxamide]
500 to 5000 | < 100 | O=C(Cc1cccc(OC(F)(F)F)c1)Nc1ccn(CCCCn2cc(C(=O)NCc3ccccc3)nn2)c(=O)c1 [Example 51, N-benzyl-1-[4-(2-oxo-4-{2-[3-(trifluoromethoxy)phenyl]acetamido}-1,2-dihydropyridin-1-yl)butyl]-1H-1,2,3-triazole-4-carboxamide]
100 to 500 | < 100 | O=C(Cc1cccc(OC(F)(F)F)c1)Nc1ccn(CCCCn2cc(C(=O)NCc3cccc(OC(F)(F)F)c3)nn2)c(=O)c1 [Example 52, 1-[4-(2-oxo-4-{2-[3-(trifluoromethoxy)phenyl]acetamido}-1,2-dihydropyridin-1-yl)butyl]-N-{[3-(trifluoromethoxy)phenyl]methyl}-1H-1,2,3-triazole-4-carboxamide]
500 to 5000 | < 100 | CS(=O)(=O)c1cccc(CNC(=O)c2cn(CCCCn3ccc(NC(=O)Cc4cccc(OC(F)(F)F)c4)cc3=O)nn2)c1 [Example 53, N-[(3-methanesulfonylphenyl)methyl]-1-[4-(2-oxo-4-{2-[3-(trifluoromethoxy)phenyl]acetamido}-1,2-dihydropyridin-1-yl)butyl]-1H-1,2,3-triazole-4-carboxamide]
500 to 5000 | 100 to 500 | CC(C)C(=O)Nc1ccn(CCCCn2cc(C(=O)NCc3cccc(OC(F)(F)F)c3)nn2)c(=O)c1 [Example 54, 1-{4-[4-(2-methylpropanamido)-2-oxo-1,2-dihydropyridin-1-yl]butyl}-N-{[3-(trifluoromethoxy)phenyl]methyl}-1H-1,2,3-triazole-4-carboxamide]
100 to 500 | < 100 | O=C(Cc1ccccc1F)Nc1ccn(CCCCn2cc(C(=O)NCc3cccc(OC(F)(F)F)c3)nn2)c(=O)c1 [Example 55, 1-(4-{4-[2-(2-fluorophenyl)acetamido]-2-oxo-1,2-dihydropyridin-1-yl}butyl)-N-{[3-(trifluoromethoxy)phenyl]methyl}-1H-1,2,3-triazole-4-carboxamide]
500 to 5000 | < 100 | O=C(CC1CCCOC1)Nc1ccn(CCCCn2cc(C(=O)NCc3cccc(OC(F)(F)F)c3)nn2)c(=O)c1 (centres unmarked) [Example 56, 1-(4-{4-[2-(oxan-3-yl)acetamido]-2-oxo-1,2-dihydropyridin-1-yl}butyl)-N-{[3-(trifluoromethoxy)phenyl]methyl}-1H-1,2,3-triazole-4-carboxamide]
500 to 5000 | 100 to 500 | O=C(Nc1ccn(CCCCn2cc(C(=O)NCc3ccccn3)nn2)c(=O)c1)OCc1ccccc1 [Example 57, benzyl N-[2-oxo-1-(4-{4-[(pyridin-2-ylmethyl)carbamoyl]-1H-1,2,3-triazol-1-yl}butyl)-1,2-dihydropyridin-4-yl]carbamate]
> 5000 | 500 to 5000 | CNC(=O)c1ccn(CCCCn2cc(C(=O)NCc3cccc(OC(F)(F)F)c3)nn2)c(=O)c1 [Example 58, N-methyl-2-oxo-1-{4-[4-({[3-(trifluoromethoxy)phenyl]methyl}carbamoyl)-1H-1,2,3-triazol-1-yl]butyl}-1,2-dihydropyridine-4-carboxamide]
100 to 500 | < 100 | O=C(NCc1cccc(OC(F)(F)F)c1)c1ccn(CCCCn2cc(C(=O)NCc3cccc(OC(F)(F)F)c3)nn2)c(=O)c1 [Example 59, 2-oxo-N-{[3-(trifluoromethoxy)phenyl]methyl}-1-{4-[4-({[3-(trifluoro-methoxy)phenyl]methyl}carbamoyl)-1H-1,2,3-triazol-1-yl]butyl}-1,2-dihydropyridine-4-carboxamide]
> 5000 | 100 to 500 | O=C(NCc1cccnc1)c1ccn(CCCCn2cc(C(=O)NCc3cccc(OC(F)(F)F)c3)nn2)c(=O)c1 [Example 60, 2-oxo-N-(pyridin-3-ylmethyl)-1-{4-[4-({[3-(trifluoro-methoxy)phenyl]methyl}carbamoyl)-1H-1,2,3-triazol-1-yl]butyl}-1,2-dihydropyridine-4-carboxamide]
500 to 5000 | 100 to 500 | COc1ccc(CNC(=O)c2ccn(CCCCn3cc(C(=O)NCc4cccc(OC(F)(F)F)c4)nn3)c(=O)c2)c(OC)c1 [Example 61, N-[(2,4-dimethoxyphenyl)methyl]-2-oxo-1-{4-[4-({[3-(trifluoro-methoxy)phenyl]methyl}carbamoyl)-1H-1,2,3-triazol-1-yl]butyl}-1,2-dihydropyridine-4-carboxamide]
